4 molecules from patent US20200079773A1, “CARBOXYLIC ACID DERIVATIVES OF PYRIDOQUINAZOLINES USEFUL AS PROTEIN KINASE INHIBITORS” (ONCOSTELLAE, S.L., priority 2017, published 2020) can be followed below.

Format in all cases: biochemical
In experiment [1] the target is T1, JAK3 (Homo sapiens, UniProt P52333).
T1 construct: purchased Carna Biosciences 08-046
Kind of experiment: Functional assay of protein kinases (Caliper mobility shift), JAK3. The conditions noted are these: ATP 8 μM, 30 min incubation. Here is the method:
(§1) Functional Assays of Protein Kinases
(§2) The functional assays of protein kinases were carried out in 384-well plates using a final volume of 30 μl. […] The reaction was reads in a “Caliper EzReader LabChip 3000” (Caliper, Hopkinton, Mass.) reader, based on electrophoretic mobility of the fluorescent substrate and the phosphorylated product.
(§3) The inhibition percentages were calculated by comparison between control reactions, for 100% of inhibition and reactions with only DMSO for 0% of inhibition.

Experiment [2] concerns the target T2, Human MLK3 (Homo sapiens, UniProt Q16584).
T2 construct: purchased Reaction Biology MLK3
Nature of the experiment: MLK3 activity inhibition test (Reaction Biology kit, 33P ATP filter assay). The conditions noted are these: MBP 10 μM, ATP 10 μM. Here is the method: MLK3 Activity Inhibition Test
Activity test was carried out using the kit from Reaction Biology (CAT #: MLK3). The test uses enzyme Human MLK3 and substrates are MBP (Myelin Basic Protein, HGNC ID:6925) 10 μM and ATP 10 μM. Other reagents are the following: Base Reaction buffer; 20 mM Hepes (pH 7.5), 10 mM MgCl2, 1 mM EGTA, 0.02% Brij35, 0.02 mg/ml BSA, 0.1 mM Na3VO4, 2 mM DTT, 1% DMSO.
The reaction was carried out following the instructions of manufacturer. Briefly, kinase/substrate pairs were prepared in reaction buffer. Compounds were delivered into the reaction, followed 20 minutes later by addition of a mixture of ATP (Sigma, St. Louis Mo.) and ^33P ATP (Perkin Elmer, Waltham Mass.) to a final concentration of 10 μM. Reactions were carried out at room temperature for 120 min, followed by spotting of the reactions onto P81 ion exchange filter paper (Whatman Inc., Piscataway, N.J.). Unbound phosphate was removed by extensive washing of filters in 0.75% phosphoric acid. […] IC50 values and curve fits were obtained using Prism (GraphPad Software).

Experiment [3] has as its target T3, TYK2 (Homo sapiens, UniProt P29597).
T3 construct: purchased Carna Biosciences 08-147
T3 sequence (P29597 871-1187 limits assumed): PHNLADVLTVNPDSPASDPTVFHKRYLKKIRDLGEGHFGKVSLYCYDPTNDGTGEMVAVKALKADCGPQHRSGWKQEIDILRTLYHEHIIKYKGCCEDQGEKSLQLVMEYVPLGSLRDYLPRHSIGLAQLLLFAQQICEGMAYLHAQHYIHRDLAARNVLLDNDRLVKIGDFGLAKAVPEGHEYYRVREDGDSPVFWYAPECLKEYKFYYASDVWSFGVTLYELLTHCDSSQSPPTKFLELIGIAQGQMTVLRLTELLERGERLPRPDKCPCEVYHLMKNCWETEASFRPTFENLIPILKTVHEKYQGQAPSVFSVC
Nature of the experiment: Functional assay of protein kinases (Caliper mobility shift), TYK2. As to conditions: ATP 20 μM, 45 min incubation. The method, then:
as §1, §2, §3

Experiment [4] deals with T4, JAK2 (Homo sapiens, UniProt O60674).
T4 construct: purchased Carna Biosciences 08-045
Kind of experiment: Functional assay of protein kinases (Caliper mobility shift), JAK2. As to conditions: ATP 300 μM, 30 min incubation. Here is the method: as §1, §2, §3

For experiment [5], the target named is T5, JAK1 (Homo sapiens, UniProt P23458).
T5 construct: purchased Carna Biosciences 08-144
Kind of experiment: Functional assay of protein kinases (Caliper mobility shift), JAK1. The conditions noted are these: ATP 100 μM, 150 min incubation. Here is the method: as §1, §2, §3

T2 sequence (Q16584 whole entry): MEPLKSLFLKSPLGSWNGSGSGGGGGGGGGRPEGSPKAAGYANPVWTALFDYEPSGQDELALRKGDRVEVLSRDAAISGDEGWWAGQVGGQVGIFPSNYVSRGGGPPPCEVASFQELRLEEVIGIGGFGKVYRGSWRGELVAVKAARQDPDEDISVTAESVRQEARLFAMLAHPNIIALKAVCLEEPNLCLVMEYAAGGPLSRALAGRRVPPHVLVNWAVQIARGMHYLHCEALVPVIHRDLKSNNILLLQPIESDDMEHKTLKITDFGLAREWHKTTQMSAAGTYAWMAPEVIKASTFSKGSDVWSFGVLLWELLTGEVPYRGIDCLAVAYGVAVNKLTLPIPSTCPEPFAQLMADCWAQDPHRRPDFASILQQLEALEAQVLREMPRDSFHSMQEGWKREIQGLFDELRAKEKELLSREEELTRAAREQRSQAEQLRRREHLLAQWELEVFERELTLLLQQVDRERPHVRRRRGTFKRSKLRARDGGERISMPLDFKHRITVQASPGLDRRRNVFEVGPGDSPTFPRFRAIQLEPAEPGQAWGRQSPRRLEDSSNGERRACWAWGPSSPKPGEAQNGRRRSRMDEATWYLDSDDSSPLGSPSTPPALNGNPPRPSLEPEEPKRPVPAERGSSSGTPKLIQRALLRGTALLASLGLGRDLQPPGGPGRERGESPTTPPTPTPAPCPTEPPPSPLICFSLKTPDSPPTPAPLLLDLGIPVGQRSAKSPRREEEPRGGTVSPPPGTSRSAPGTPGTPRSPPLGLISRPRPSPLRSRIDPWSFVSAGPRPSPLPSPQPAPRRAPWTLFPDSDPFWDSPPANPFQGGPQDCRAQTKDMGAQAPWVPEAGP
T4 sequence (O60674 826-1132 limits assumed): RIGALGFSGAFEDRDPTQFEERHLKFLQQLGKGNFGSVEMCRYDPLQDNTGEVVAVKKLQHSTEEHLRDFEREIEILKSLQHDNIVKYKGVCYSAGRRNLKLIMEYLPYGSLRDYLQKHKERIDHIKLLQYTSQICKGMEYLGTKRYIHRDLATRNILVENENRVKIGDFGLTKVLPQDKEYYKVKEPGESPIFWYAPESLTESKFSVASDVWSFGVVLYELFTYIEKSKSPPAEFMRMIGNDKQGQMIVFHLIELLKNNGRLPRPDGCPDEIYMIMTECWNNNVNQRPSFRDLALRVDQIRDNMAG
T1 sequence (P52333 795-1124 limits assumed): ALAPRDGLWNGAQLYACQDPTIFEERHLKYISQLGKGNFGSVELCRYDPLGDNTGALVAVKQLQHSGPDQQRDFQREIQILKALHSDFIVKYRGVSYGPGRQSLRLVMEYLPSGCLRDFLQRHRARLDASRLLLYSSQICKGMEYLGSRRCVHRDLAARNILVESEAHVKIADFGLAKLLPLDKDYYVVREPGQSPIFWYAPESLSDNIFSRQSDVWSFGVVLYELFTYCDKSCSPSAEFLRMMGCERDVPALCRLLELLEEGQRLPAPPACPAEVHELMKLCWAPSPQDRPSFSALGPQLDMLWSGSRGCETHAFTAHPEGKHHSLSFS
T5 sequence (P23458 850-1154 limits assumed): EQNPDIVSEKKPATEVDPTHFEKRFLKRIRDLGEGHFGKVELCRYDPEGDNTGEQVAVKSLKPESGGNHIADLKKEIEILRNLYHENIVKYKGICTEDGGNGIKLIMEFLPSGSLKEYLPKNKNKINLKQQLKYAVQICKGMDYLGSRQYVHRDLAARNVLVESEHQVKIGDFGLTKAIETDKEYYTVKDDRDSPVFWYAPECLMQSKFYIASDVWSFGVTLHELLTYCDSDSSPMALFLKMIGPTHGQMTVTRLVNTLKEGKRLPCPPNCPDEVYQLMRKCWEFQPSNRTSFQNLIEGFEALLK

With `O=C(N[C@H]1CC[C@@H](C(=O)O)CC1)c1cccn2c(=O)c3ccccc3nc12` [Example 13, (1S,4S)-4-(11-oxo-11H-pyrido[2,1-b]quinazoline-6-carboxamido)cyclohexane-1-carboxylic add], the IC50 (commonly the midpoint of a concentration-inhibition curve) was 0.1 to 1 µM in experiment [1]; 0.1 to 1 µM in experiment [2]; 0.1 to 1 µM in experiment [3]; at least 1 µM in experiment [4]; at least 1 µM in experiment [5].
As to `N#Cc1ccc2nc3c(C(=O)NC4CCC(C(=O)O)CC4)cccn3c(=O)c2c1` (centres unmarked) [Example 21, 4-(2-cyano-11-oxo-11H-pyrido[2,1-b]quinazoline-6-carboxamido)cyclohexane-1-carboxylic add], the IC50 was 0.1 to 1 µM in experiment [1]; at least 1 µM in experiment [2]; at least 1 µM in experiment [3]; at least 1 µM in experiment [4]; at least 1 µM in experiment [5].
For the molecule `O=C(N[C@H]1CC[C@@H](C(=O)O)CC1)c1cccn2c(=O)c3cc(-c4ccncc4)ccc3nc12` [Example 17, (1S,4S)-4-(11-oxo-2-(pyridin-4-yl)-11H-pyrido[2,1-b]quinazoline-6-carboxamido)cyclohexane-1-carboxylic acid], the IC50 in experiment [1] was below 0.1 µM; in experiment [2], below 0.1 µM; in experiment [3], below 0.1 µM; in experiment [4], at least 1 µM; in experiment [5] it was at least 1 µM.
Turning to `O=C(N[C@H]1CC[C@@H](C(=O)O)CC1)c1cccn2c(=O)c3cc(-c4ccc(F)cc4)ccc3nc12` [Example 16, (1S,4S)-4-(2-(4-fluorophenyl)-11-oxo-11H-pyrido[2,1-b]quinazoline-6-carboxamido)cyclohexane-1-carboxylic acid], the IC50 was below 0.1 µM in experiment [1]; below 0.1 µM in experiment [2]; below 0.1 µM in experiment [3]; at least 1 µM in experiment [4]; at least 1 µM in experiment [5].
